Results reported in patent US5674909A, “Derivatives of 2-amino-1,2,3,4-tetrahydronaphthalene active on the cardiovascular system” (Zambon Group, priority 1994, dated 1997).
Counter-ions that a name gives are not always drawn.

What was measured:
[1] = Fitton and Benfield, Drugs 1990; cited from earlier work
dopaminergic receptors = conditions: Fitton and Benfield, Drugs 1990; cited from earlier work
[2] = test system: D1 -like (Rabbit Splenic Artery); experiment: D1-like activity in the Rabbit Splenic Artery (RSA) test; conditions: agonist activity at the peak of the effect; contracted with U46619 0.1 μM
Procedure: Arterial rings were prepared according to Semeraro et al., Naunyn. Schmied. Arch. Pharmacol., 1990, 342, 539.
The arterial preparations were contracted with U46619 (9,11-di-deoxy-11α,9α-epoxy-methanoprostaglandin F2α) at the submaximal concentration 0.1 μM.
(§1) The tested compounds were cumulatively administered.
(§2) Ref. A was used as reference substance.
(§3) Agonist activity evaluated at the peak of the effect and expressed as potency ratio (EC50 of Ref. A/EC50 of tested compound) is reported in table 2.

D2 receptor = D2 receptor (Rattus norvegicus, UniProt P61169); experiment: biochemical; type: binding, rat (Sprague-Dawley); conditions: [3H]-domperidone 0.3 nM, rat striated membranes, 0.01% BSA, 37° C., 30 minutes; read-out: Affinity [K1 (nM)] towards D2 receptor
Procedure: (§4) The tissue were homogenized in 50 mM Tris/HCl buffer at pH 7.4 (1:100 w/v).
(§5) The homogenate was centrifuged and the pellet resuspended, recentrifuged and resuspended again in 50 mM Tris/HCl buffer at pH 7.4 containing 120 mM NaCl, 5 mM KCl, 2 mM CaCl2 and 1 mM MgCl2.
Furthermore, bovine serum albumine (BSA) (0.01%) was added.
The mixture was incubated at 37° C. for 30 minutes for each concentration of tested compounds.

D1 receptor = D1 receptor (Rattus norvegicus, UniProt P18901); experiment: biochemical; type: binding, rat (Sprague-Dawley); conditions: [3H]-SCH23390 0.2 nM, rat striated membranes, pH 7.4, 37° C., 20 minutes; read-out: Affinity [K1 (nM)] towards D1 receptor
Procedure: as §4, §5
The mixture was incubated with different concentrations of the tested compounds at 37° C. for 20 minutes, filtered under vacuum through Whatman GF/C filters and then washed 4 times with 5 ml of 50 mM Tris/HCl buffer (pH 7.4) cooled with ice.

[3] = biological target: T1, D2 -like (Rabbit Ear Artery) (Oryctolagus cuniculus, UniProt G1T1Q0); experiment: D2-like activity in the Rabbit Ear Artery (REA) test; set-up: species or system New Zealand rabbit; conditions: agonist activity at the peak of the effect; electrically stimulated
T1 construct: the central ear artery was dissected into 3 mm long rings; from tissue; host or cells: rabbit central ear artery rings (male New Zealand rabbits), electrically stimulated
Procedure: Arterial rings were prepared according to the method described by Steinsland et al., Science, 1978, 443, 199, modified as follows. Male New Zealand rabbits weighing 2.5-3 Kg were sacrificed by intravenous injection of an excess of pentobarbital sodium and exsanguinated. The two ears were taken away and the central ear artery was dissected into 3 mm long rings.
These preparations were set up in a 25 ml organ bath containing Krebs solution (mM/l): NaCl 118, KCl 4.7, CaCl2 2.5, MgSO4 1.2, NaHCO3 25, KH2 PO4 1.2, glucose 11.1, equilibrated with 95% 02 -5% CO2 and maintained at 35°±1° C.
Krebs solution was medicated with EDTA (10 μM) to prevent cathecolamine oxydation, desipramine (0.1 μM) and corticosterone (30 μM), to block neuronal and extraneuronal cathecolamine uptake. The preparations were electrically stimulated (10 Hz, 1 msec, 40-80 mA, 500 msec duration) at 5 minutes intervals.
as §1, §2, §3

[4] = test system: spontaneously hypertensive rats; experiment: In vivo antihypertensive activity, i.v., spontaneously hypertensive rats; set-up: species or system rat (spontaneously hypertensive, Charles River); conditions: 30 nmol/kg i.v. bolus; recorded over 4 hours; basal MBP 190-200 mmHg; Ref. A n = 6, Compound 22 n = 7
Procedure: Male spontaneously hypertensive rats (Charles River) more than 14 weeks old were used.
Catheters were inserted into the right carotid artery and into the left giugular vein under barbituric anesthesia.
The animals were allowed to recover overnight.
The tested compounds were administered into the left giugular vein by bolus injection.
Control animals were injected with an equal volume of vehicle. The induced effect was continuously recorded over a period of 4 hours.
Basal values of Mean Blood Pressure (MBP) were in the range of 190-200 mmHg.
The antihypertensive activity of compound 22 expressed as MBP reduction compared with the antihypertensive activity of Ref. A is reported in the following table.

T1 sequence (G1T1Q0 1-443): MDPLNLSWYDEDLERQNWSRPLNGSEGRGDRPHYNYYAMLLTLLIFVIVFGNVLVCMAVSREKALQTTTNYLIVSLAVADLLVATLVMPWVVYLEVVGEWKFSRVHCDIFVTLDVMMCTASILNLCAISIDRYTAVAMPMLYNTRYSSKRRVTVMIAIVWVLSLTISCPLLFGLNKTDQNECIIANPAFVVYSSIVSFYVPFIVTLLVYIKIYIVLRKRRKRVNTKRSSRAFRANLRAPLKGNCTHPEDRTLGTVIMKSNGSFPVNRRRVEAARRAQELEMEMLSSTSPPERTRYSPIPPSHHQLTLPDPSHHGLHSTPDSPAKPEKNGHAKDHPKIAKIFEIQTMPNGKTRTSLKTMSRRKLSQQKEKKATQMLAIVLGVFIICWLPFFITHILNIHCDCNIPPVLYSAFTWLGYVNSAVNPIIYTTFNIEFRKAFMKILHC
Sequence of D1 receptor (P18901 whole entry): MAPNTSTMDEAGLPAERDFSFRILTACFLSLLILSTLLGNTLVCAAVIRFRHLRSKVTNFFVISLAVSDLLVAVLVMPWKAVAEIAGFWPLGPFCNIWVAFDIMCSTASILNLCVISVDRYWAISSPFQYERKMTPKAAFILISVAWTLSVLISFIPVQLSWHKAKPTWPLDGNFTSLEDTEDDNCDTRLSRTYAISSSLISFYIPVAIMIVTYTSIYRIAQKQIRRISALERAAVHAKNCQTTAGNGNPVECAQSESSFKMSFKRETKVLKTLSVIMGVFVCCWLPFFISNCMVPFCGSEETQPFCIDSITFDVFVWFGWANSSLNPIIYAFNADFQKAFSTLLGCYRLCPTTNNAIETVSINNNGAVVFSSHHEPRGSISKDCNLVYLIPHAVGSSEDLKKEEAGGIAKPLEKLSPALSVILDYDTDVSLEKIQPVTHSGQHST
Sequence of D2 receptor (P61169 whole entry): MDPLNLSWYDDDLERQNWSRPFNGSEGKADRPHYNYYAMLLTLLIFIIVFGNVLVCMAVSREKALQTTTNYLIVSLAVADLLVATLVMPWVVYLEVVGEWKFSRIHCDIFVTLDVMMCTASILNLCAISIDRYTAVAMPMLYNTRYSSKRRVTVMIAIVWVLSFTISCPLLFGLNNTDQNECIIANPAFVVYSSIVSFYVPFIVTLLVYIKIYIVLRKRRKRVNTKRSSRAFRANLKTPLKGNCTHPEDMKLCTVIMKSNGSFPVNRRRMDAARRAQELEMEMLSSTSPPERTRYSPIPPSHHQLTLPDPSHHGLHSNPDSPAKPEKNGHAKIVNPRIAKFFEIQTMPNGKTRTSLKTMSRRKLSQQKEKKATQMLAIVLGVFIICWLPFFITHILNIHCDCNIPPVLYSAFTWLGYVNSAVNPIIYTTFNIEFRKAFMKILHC

| D1 -like (RSA) potency ratio (EC50 of Ref. A/EC50 of tested compound) [2] | Ki (D2 receptor) [nM] | Ki (D1 receptor) [nM] | D2 -like (REA) potency ratio (EC50 of Ref. A/EC50 of tested compound) [3] | SMILES | absorption when administered by oral route [1] | agonist activity at dopaminergic receptors compared with dopamine (dopaminergic receptors) | MBP reduction, mean ± S.E. [4] [mmHg] |
| --- | --- | --- | --- | --- | --- | --- | --- |
|  |  |  |  | Oc1ccc(CCNCCCCCCNCCc2ccccc2)cc1O [Dopexamine, dopexamine] | not absorbed when administered by oral route | less active than dopamine |  |
| 17 | 1.8 | 45 | 3 | CCCN(CCCCCCNCCOc1ccc(O)cc1)[C@H]1CCc2c(ccc(O)c2O)C1.Cl.Cl [Compound 24, (S)-N-propyl-N-[6-[2-(4-hydroxyphenoxy)ethylamino]hexyl]-5,6-dihydroxy-1,2,3,4-tetrahydro-2-naphthylamine dihydrochloride] |  |  |  |
| 1 | 0.1 | 23 | 1.7 | Br.Br.CCCN(CCCCCCNCCSc1ccc(O)cc1)[C@H]1CCc2c(ccc(O)c2O)C1 [Compound 8, (S)-N-propyl-N-[6-[2-(4-hydroxyphenylthio)ethylamino]hexyl]-5,6-dihydroxy-1,2,3,4-tetrahydro-2-naphthylamine dihydrobromide] |  |  |  |
| 1.4 | 0.6 | 117 | 2 | Br.Br.CCCN(CCCCCCN1CCc2cc(O)c(O)cc2C1)[C@H]1CCc2c(ccc(O)c2O)C1 [Compound 10, (S)-N-propyl-N-[6-(6,7-dihydroxy-1,2,3,4-tetrahydroisoquinolin-2-yl)hexyl]-5,6-dihydroxy-1,2,3,4-tetrahydro-2-naphthylamine dihydrobromide] |  |  |  |
| 2.5 | 2.1 | 356 | 5 | Br.CCCN(CCCCCCNC(=O)Cc1ccc(O)c(O)c1)[C@H]1CCc2c(ccc(O)c2O)C1 [Compound 34, (S)-N-propyl-N-[6-[(3,4-dihydroxyphenyl)acetylamino]hexyl]-5,6-dihydroxy-1,2,3,4-tetrahydro-2-naphthylamine hydrobromide] |  |  |  |
| 14 |  |  | 3 | Br.Br.CCCN(CCCCCCNCCc1ccc(S(C)(=O)=O)cc1)[C@H]1CCc2c(ccc(O)c2O)C1 [Compound 22, (S)-N-propyl-N-[6-[2-(4-methylsulphonylphenyl)ethylamino]hexyl]-5,6-dihydroxy-1,2,3,4-tetrahydro-2-naphthylamine dihydrobromide] |  |  | -61.7 ± 5.7 |
|  |  |  |  | NCCc1ccc(O)c(O)c1 [Dopamine] | not absorbed when administered by oral route |  |  |
|  | 0.25 | 370 |  | CCCN(CCCCCCNC(=O)COc1ccccc1OC)[C@H]1CCc2c(ccc(O)c2O)C1 [Compound 7, (S)-N-propyl-N-[6-[(2-methoxyphenoxy)acetylamino]hexyl]-5,6-dihydroxy-1,2,3,4-tetrahydro-2-naphthylamine hydrochloride] |  |  |  |
| 0.9 | 0.24 | 119 | 0.5 | Br.Br.Br.CCCN(CCCCCCN1CCN(Cc2ccc(O)cc2)CC1)[C@H]1CCc2c(ccc(O)c2O)C1 [Compound 15, (S)-N-propyl-N-[6-[4-(4-hydroxyphenylmethyl)piperazin-1-yl]hexyl]-5,6-dihydroxy-1,2,3,4-tetrahydro-2-naphthylamine trihydrobromide] |  |  |  |
|  | 1.5 | 69 |  | CCCN(CCCCCCNCCOc1ccc([N+](=O)[O-])cc1)[C@H]1CCc2c(ccc(O)c2O)C1 [Compound 5, (S)-N-propyl-N-[6-[2-(4-nitrophenoxy)ethylamino]hexyl]-5,6-dihydroxy-1,2,3,4-tetrahydro-2-naphthylamine dihydrochloride] |  |  |  |
| 10 | 0.4 | 29 | 14 | Br.Br.CCCN(CCCCCCNCCCc1ccc(O)c(O)c1)[C@H]1CCc2c(ccc(O)c2O)C1 [Compound 13, (S)-N-propyl-N-[6-[3-(3,4-dihydroxyphenyl)propylamino]hexyl]-5,6-dihydroxy-1,2,3,4-tetrahydro-2-naphthylamine dihydrobromide] |  |  |  |
| 1 | 0.8 | 158 |  | CCCN(CCCCCCNCCc1ccccc1OC)[C@H]1CCc2c(ccc(O)c2O)C1.Cl.Cl [Ref. A, (S)-N-propyl-N-[6-[2-(2-methoxyphenyl)ethylamino]hexyl]-5,6-dihydroxy-1,2,3,4-tetrahydro-2-naphthylamine dihydrochloride, reference compound] |  |  | -25 ± 1.1 |
| 1.7 | 0.6 | 130 | 1.3 | CCCN(CCCCCCOCCc1ccc(O)c(O)c1)[C@H]1CCc2c(ccc(O)c2O)C1.Cl [Compound 25, (S)-N-propyl-N-[6-[2-(3,4-dihydroxyphenyl)ethoxy]hexyl]-5,6-dihydroxy-1,2,3,4-tetrahydro-2-naphthylamine hydrochloride] |  |  |  |
| 10 | 1.3 | 81 | 3 | CCCN(CCCCCCNCCOc1ccc(S(C)(=O)=O)cc1)[C@H]1CCc2c(ccc(O)c2O)C1.Cl.Cl [Compound 6, (S)-N-propyl-N-[6-[2-(4-methylsulphonylphenoxy)ethylamino]hexyl]-5,6-dihydroxy-1,2,3,4-tetrahydro-2-naphthylamine dihydrochloride] |  |  |  |
| 10 | 0.4 | 25 | 0.3 | CCCN(CCCCCCNCCc1ccc2c(c1)OCO2)[C@H]1CCc2c(ccc(O)c2O)C1.Cl.Cl [Compound 2, (S)-N-propyl-N-[6-[2-(3,4-methylendioxyphenyl)ethylamino]hexyl]-5,6-dihydroxy-1,2,3,4-tetrahydro-2-naphthylamine dihydrochloride] |  |  |  |
| 10 | 0.15 | 22 | 5 | Br.Br.CCCN(CCCCCCNCCCc1ccc(O)cc1)[C@H]1CCc2c(ccc(O)c2O)C1 [Compound 9, (S)-N-propyl-N-[6-[3-(4-hydroxyphenyl)propylamino]hexyl]-5,6-dihydroxy-1,2,3,4-tetrahydro-2-naphthylamine dihydrobromide] |  |  |  |
| 3 | 0.2 | 178 | 0.8 | Br.Br.CCCN(CCCCCCNCCCc1ccccc1O)[C@H]1CCc2c(ccc(O)c2O)C1 [Compound 16, (S)-N-propyl-N-[6-[3-(2-hydroxyphenyl)propylamino]hexyl]-5,6-dihydroxy-1,2,3,4-tetrahydro-2-naphthylamine dihydrobromide] |  |  |  |
|  | 1.1 | 78 |  | CCCN(CCCCCCNCCOc1ccccc1[N+](=O)[O-])[C@H]1CCc2c(ccc(O)c2O)C1 [Compound 4, (S)-N-propyl-N-[6-[2-(2-nitrophenoxy)ethylamino]hexyl]-5,6-dihydroxy-1,2,3,4-tetrahydro-2-naphthylamine dihydrochloride] |  |  |  |
